Measured values as given in PubChem BioAssay AID1259334 (Broad Institute, 2017).
The source made the active and inactive calls. Rule as the data show it: active = AC50 below about 11 µM.

tested on: B cell line, TNFa signaling counterscreen reporter; assay: TNFa pathway inhibition counter-screen, B-lineage cells – dose response (AID 1259334);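 also: cells stimulated with TNFa after compound preincubation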

Compound	AC50
CN(C)c1ccc(C=c2c3cc(O)ccc3n3c2cc(-c2ccccc2)[n+]3C)cc1	2.46 µM
COc1ccc(C=Cc2ccc3ccccc3n2)c(OC)c1	3.48 µM
COc1ccc2cc(-c3cc(C(=O)O)c4ccccc4n3)ccc2c1	6.93 µM
CS(=O)(=O)c1ccc(C(=O)OCC(=O)NC(=O)C2CCCCC2)cc1[N+](=O)[O-]	2.79 µM
CC1OC(OC2CC(O)C3(CO)C4C(O)CC5(C)C(C6=CC(=O)OC6)CCC5(O)C4CCC3(O)C2)C(O)C(O)C1O (centres undefined)	0.109 µM
O=C(Nc1ccc(C(F)(F)F)cc1)Nc1ccc2c(c1)[C@H]1C[C@@H](CC(=O)N3CCc4ccccc4C3)O[C@@H](CO)[C@H]1O2	> 7 µM (inactive)
CN(C)c1ccc(C(=C2C=CC(=[N+](C)C)C=C2)c2ccc(N(C)C)cc2)cc1	0.099 µM
O=C(Nc1ccc2c(c1)OCCO2)C1CCCC1	1.76 µM
CCOC(=O)c1c(SCCN2CCCC2)n(-c2ccccc2)c(=S)n(-c2ccccc2)c1=O	4.78 µM
COCC(C)n1c(C)cc(C(=O)COC(=O)c2cccn2C)c1C (centres undefined)	0.76 µM
C[C@H]1CN([C@@H](C)CO)C(=O)c2c(c3ccccc3n2C)-c2ccccc2CO[C@@H]1CN(C)Cc1cccc(C(F)(F)F)c1	8.42 µM
CCS(=O)(=O)N1Cc2ccccc2CC1C(=O)Nc1nc2ccccc2s1 (centres undefined)	6.66 µM
COc1ccc(S(=O)(=O)Nc2ccc3c(c2)C(=O)N([C@H](C)CO)C[C@@H](C)[C@@H](CN(C)Cc2ccc(C(F)(F)F)cc2)OCCCC[C@H](C)O3)cc1	> 20 µM (inactive)
COc1c(-c2coc3cc4c(cc3c2=O)CC(O)C(C)(C)O4)ccc2c1C=CC(C)(C)O2 (centres undefined)	11 µM
COc1ccc2c3c(n(C)c2c1)[C@H](CO)N(C(=O)Nc1ccc(F)cc1)CC31CCN(C(=O)c2ccc3c(c2)OCO3)CC1	> 20 µM (inactive)
CN(C)C(=S)SSC(=S)N(C)C	0.0358 µM
CC1CC(C)CC(C)C(O)C(C#N)=CC=CCC(C2CCCC2C(=O)O)OC(=O)CC(O)C(C)C1 (centres undefined)	< 0.0005 µM
CC1=C(SCCO)C(=O)c2ccccc2C1=O	2.22 µM
CCC(C)(O)C(=O)OC1C(=O)OC2CC3C(C)=CC(=O)C(O)C3(C)C3C4(O)OCC23C1C(C)C4O (centres undefined)	0.0228 µM
CCS(=O)(=O)N1[C@H](CO)[C@@H](c2ccc(C#Cc3ccccc3F)cc2)[C@@H]1C#N	7.11 µM
COc1ccc(S(=O)(=O)N(C)C[C@H]2Oc3ccc(NC(=O)Nc4ccc(C(F)(F)F)cc4)cc3C(=O)N([C@H](C)CO)C[C@H]2C)cc1	8.38 µM
C[C@@H]1CN([C@@H](C)CO)C(=O)c2c(c3ccccc3n2C)-c2ccccc2CO[C@H]1CN(C)S(=O)(=O)c1ccc([N+](=O)[O-])cc1	> 20 µM (inactive)

Compound	AC50
C[C@@H]1CN([C@@H](C)CO)C(=O)c2c(c3ccccc3n2C)-c2ccccc2CO[C@@H]1CN(C)Cc1ccccc1C(F)(F)F	> 20 µM (inactive)
Cn1cc(C2=C(c3cn(CCCSC(=N)N)c4ccccc34)C(=O)NC2=O)c2ccccc21	0.305 µM
CC1CNCCN1S(=O)(=O)c1cccc2cnccc12 (centres undefined)	7.79 µM
CC[C@@]1(O)C(=O)OCc2c1cc1n(c2=O)Cc2cc3cc(O)ccc3nc2-1	1.13 µM
Oc1cc2c(cc1C(c1ccc(Br)cc1)N1CCCC1)OCO2 (centres undefined)	6.97 µM
COC(=O)c1ccccc1-c1c2ccc(=N)cc-2oc2cc(N)ccc12	4.57 µM
CC(C)Cc1ccc(C(C)/C=C2/CCC(CN3CCCCC3)C2=O)cc1 (centres undefined)	8.62 µM
CC1(C)C(=O)C=C[C@@]2(C)C1C[C@@H](O)[C@]1(C)C2CC[C@@]2(C)[C@H](c3ccoc3)OC(=O)[C@H]3O[C@]321 (some centres undefined)	11.3 µM
Cc1ccc(S(=O)(=O)N[C@@H](Cc2ccccc2)C(=O)CCl)cc1	1.2 µM
C[n+]1c(-c2ccccc2)cc2c(=Cc3ccc([N+](=O)[O-])cc3)c3ccccc3n21	2.96 µM
C[C@@H]1CN([C@H](C)CO)C(=O)c2c(c3ccccc3n2C)-c2ccccc2CO[C@H]1CN(C)Cc1cccc(C(F)(F)F)c1	> 20 µM (inactive)
COc1cc(C(=O)CCN2CCC(c3ccccc3)C2)cc(OC)c1OC (centres undefined)	4.66 µM
Cc1ccccc1NC(=O)c1nc(S(C)(=O)=O)ncc1Cl	1.96 µM
COc1ccc(S(=O)(=O)Nc2ccc3c(c2)C(=O)N([C@@H](C)CO)C[C@@H](C)[C@H](CN(C)Cc2ccc(C(F)(F)F)cc2)OCCCC[C@@H](C)O3)cc1	8.32 µM
CC1=CC(C)(C)N=C(Nc2nc(C)c3cc(C)cc(C)c3n2)N1	2.49 µM
O=[N+]([O-])c1ccc(N2CCOCC2)c2c1no[n+]2[O-]	6.5 µM
Clc1ccc(CSC(Cn2ccnc2)c2ccc(Cl)cc2Cl)cc1 (centres undefined)	> 20 µM (inactive)
CC(C)(C)OC(=O)CC(S(=O)(=O)c1ccccc1)S(=O)(=O)c1ccccc1	1.07 µM
N#C[C@H]1[C@H](c2ccc(C#Cc3ccccc3F)cc2)[C@@H](CO)N1C(=O)c1cccnc1	9.37 µM
N#C[C@@H]1[C@H](c2ccc(C#Cc3ccccc3F)cc2)[C@@H](CO)N1C(=O)c1cccnc1	6.76 µM
COc1ccc(S(=O)(=O)Nc2ccc3c(c2)C(=O)N([C@H](C)CO)C[C@H](C)[C@@H](CN(C)Cc2ccc(C(F)(F)F)cc2)OCCCC[C@@H](C)O3)cc1	8.37 µM
Cc1ccccc1C(=O)N1CCC(C(=O)Nc2nc3ccc(F)cc3s2)CC1	7.86 µM
